Measurements from patent US20230355605A1, “DRUG FOR ENHANCING FIBRINOLYTIC SYSTEM, AND USE THEREFOR” (priority 2020, published 2023).

Columns and labels:
[1] = tested on: mouse model of bleomycin-induced pulmonary fibrosis; assay: Mouse model of bleomycin-induced pulmonary fibrosis; type: in vivo
Procedure: The improvement effect of the present compound on pulmonary fibrosis (remodeling after lung damage) was evaluated using a mouse model of bleomycin-induced pulmonary fibrosis. […] Because of similarity of histopathological changes to pulmonary fibrosis in humans, this mouse model is widely used for the evaluation of the drug efficacy.
To a fibrosis mouse model (fibrosis model group) given a single dose of bleomycin (1.2 mg/mL), the present compound (0.75 mg/kg/day) was orally administered for 21 days (present compound administration group, n = 9), and biochemical analysis of the lungs and measurement of clinical conditions of the lungs were performed on day 22. For comparison, instead of the present compound, the solvent used to dissolve the present compound was administered to a fibrosis model group in the same manner (vehicle group, n = 10), and biochemical analysis and measurement of clinical conditions of the lungs were performed. As a positive control group, a dexamethasone administration group (0.25 mg/kg administration, n = 9) was used. The biochemical analysis was performed using lung hydroxyproline values as an index. The clinical conditions of the lungs were evaluated by performing Masson’s trichrome staining and calculating Ashcroft scores according to a report of Ashcroft et al. (Ashcroft T et al., J Clin Pathol, 1988; 41:467). The clinical conditions were confirmed by comparing a normal mouse group (normal group, n = 10) with the vehicle group (n = 10), and the improvement effect of the present compound on pulmonary fibrosis was evaluated by comparing the vehicle group (n = 10) with the present compound administration group (n = 9). Differences between the mean values of the groups were tested by the Bonferroni selected pairs test using Prism 4 (GraphPad Software).
Table 1 and FIG. 3(A) and FIG. 3(B) show the results of comparisons of the lung hydroxyproline values and the Ashcroft scores in the groups. The mean values of the groups are expressed as mean±SD, and examination was performed at a 5% significance level.

t-PA = t-PA activity in blood, phase I repeated oral dose study; type: in vivo, human
Procedure: The pharmacological activities (PAI-1 activity and t-PA activity) were evaluated using blood collected from the subjects before and after administration of the present compound or the placebo as test samples. Blood was collected before administration and 2, 4, and 8 hours after administration on the first day of the experiment (day 1) and day 7 after the start of the experiment, and on the other days, blood was collected once a day before administration (only before administration on days 2 to 6, day 8, and day 11 after the start of administration).
After collecting blood samples from the subjects, the samples were treated with 0.5 M sodium citrate (pH of 4.3) and centrifuged at 4° C., 2,500 g for 15 minutes to obtain plasma. The collected plasma was used for measurement of t-PA activity and stored frozen at -80° C. until measurement.
The t-PA activity was measured using a ZYMUPHEN tPA Activity kit (produced by HYPHEN BioMed). In this system, a plasma sample collected from a subject is reacted with human plasminogen to form plasmin by the action of tPA, the plasmin is reacted with a substrate specific to plasmin, and pNA, which is a degradation product produced, is measured by the absorbance at a wavelength of 405 nm with a plate reader.

male Crl:CD(SD) rats = assay: Effect on central nervous system (functional observational battery); type: in vivo, rat; details: single oral dose, up to 300 mg/kg
Procedure: The effect of the present compound on the central nervous system was examined by the functional observational battery (FOB) in rats, using male Crl:CD(SD) rats. Specifically, the present compound was orally administered to the rats in a single dose, and the rats were observed before administration and 0.5, 1, 2, 4, 8, and 24 hours after administration. To a control group (six rats), a 0.5 w/v% carmellose sodium aqueous solution (vehicle) was administered instead of the present compound in the same manner. […] Thus, it was considered that the present compound has no effect on the central nervous system up to a dosage of 300 mg/kg in single oral dose administration using rats.

pregnant rats = assay: Embryo-fetal developmental toxicity study; type: in vivo, rat; details: oral, days 7 to 17 of gestation
Procedure: The effect of oral administration of the present compound on embryo-fetal development was examined using rats. Specifically, the present compound was orally administered to pregnant rats from implantation to closure of the hard palate (days 7 to 17 of gestation), and the effect on the mothers, and embryos and fetuses was examined. Furthermore, the plasma concentration of the present compound after administration was measured, and its change was examined. During the study period, the general conditions of all of the animals were observed, and their body weights were measured; in the toxicity group, food consumption was measured; a Cesarean section test was performed on day 20 of gestation. Thereafter, fetal visceral and skeletal specimens were prepared, and a fetal examination was performed.

[2] = tested on: immature rat bone marrow erythrocytes; assay: Micronucleus study in rats; details: in vivo
Procedure: The present compound was orally administered to rats to examine its micronucleus-inducing properties and bone marrow cell proliferation suppressive effect on immature bone marrow erythrocytes.
Specifically, the present compound was orally administered to rats twice 24 hours apart, and bone marrow smears were prepared 18 to 24 hours after the last administration. 2000 immature erythrocytes (IEs) were observed per individual, and the percentage of micronucleated immature erythrocytes (micronucleated IEs, MNIEs) contained in the immature erythrocytes [MNIEs (%)] was calculated. In addition, 1000 erythrocytes were observed as the total erythrocyte count per individual, and the percentage of IEs in the total erythrocytes [IEs (%)] was determined.

hERG current = biological target: T1, hERG current (Homo sapiens, UniProt Q12809); assay: Effect on hERG current (whole-cell patch clamp); type: cell-based; details: 0.1, 1, 10 µM; up to 10 µM; 10 minutes after application; hERG-expressing HEK293 cells
T1 construct: expressed in transfected cells; host or cells: HEK293
T1 sequence (Q12809 whole entry): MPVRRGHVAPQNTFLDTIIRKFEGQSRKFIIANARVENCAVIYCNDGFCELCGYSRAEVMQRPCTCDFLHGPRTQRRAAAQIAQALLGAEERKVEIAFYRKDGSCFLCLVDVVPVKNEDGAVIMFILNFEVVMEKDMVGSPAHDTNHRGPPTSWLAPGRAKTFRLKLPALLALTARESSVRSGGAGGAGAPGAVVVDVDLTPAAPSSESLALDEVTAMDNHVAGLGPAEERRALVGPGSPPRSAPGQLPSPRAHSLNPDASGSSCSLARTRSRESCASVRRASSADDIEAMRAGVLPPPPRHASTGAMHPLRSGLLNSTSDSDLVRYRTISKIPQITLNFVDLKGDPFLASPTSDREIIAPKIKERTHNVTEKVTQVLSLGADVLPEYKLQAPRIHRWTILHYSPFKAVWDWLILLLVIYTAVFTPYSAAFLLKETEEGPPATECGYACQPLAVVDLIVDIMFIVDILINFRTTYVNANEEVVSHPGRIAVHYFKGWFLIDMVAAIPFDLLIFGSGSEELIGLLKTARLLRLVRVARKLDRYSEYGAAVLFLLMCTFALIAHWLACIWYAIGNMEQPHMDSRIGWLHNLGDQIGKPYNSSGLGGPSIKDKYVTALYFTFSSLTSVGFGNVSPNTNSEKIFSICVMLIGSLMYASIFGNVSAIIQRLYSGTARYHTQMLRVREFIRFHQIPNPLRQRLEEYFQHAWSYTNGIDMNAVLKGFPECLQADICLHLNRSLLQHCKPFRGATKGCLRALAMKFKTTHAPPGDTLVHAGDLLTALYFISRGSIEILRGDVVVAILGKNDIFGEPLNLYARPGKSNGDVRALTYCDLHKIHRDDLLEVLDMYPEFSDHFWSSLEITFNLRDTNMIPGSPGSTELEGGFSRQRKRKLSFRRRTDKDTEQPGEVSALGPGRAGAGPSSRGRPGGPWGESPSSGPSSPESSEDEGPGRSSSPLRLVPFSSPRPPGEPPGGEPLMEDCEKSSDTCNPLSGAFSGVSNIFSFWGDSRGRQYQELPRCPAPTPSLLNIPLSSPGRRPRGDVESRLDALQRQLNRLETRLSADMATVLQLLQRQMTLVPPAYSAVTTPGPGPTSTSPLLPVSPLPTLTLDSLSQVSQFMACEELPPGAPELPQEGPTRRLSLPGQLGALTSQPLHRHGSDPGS
Procedure: The effect of the present compound on hERG current was examined by a whole-cell patch clamp method using HEK293 cells transfected with the human ether-a-go-go-related gene (hERG). This study was performed as part of a safety pharmacology core battery study to predict the risk of a drug-induced proarrhythmic effect, in particular, prolongation of QT interval on an electrocardiogram, in an in vitro study. The concentration of the present compound was set to 0.1, 1, and 10 µM, and the tail peak current suppression rate (%) 10 minutes after application relative to that before application was used as an index of the effect on hERG current. As a vehicle control, 0.1 v/v% DMSO was used, and as a positive control, 0.1 µmol/L of E-4031 was used.

[3] = day 22, present compound 0.75 mg/kg/day oral 21 days, dexamethasone 0.25 mg/kg, mean±SD

O=C(Nc1ccc(Cl)cc1C(=O)[O-])c1cccc(-c2cccc3cccnc23)c1.[Na+] [present compound, sodium 5-chloro-2-({ [3-(quinolin-8-yl)phenyl]carbonyl}amino)benzoate] was tested, and the “Ashcroft score compared with vehicle group” value ([1]; 5% significance level) was “significantly lower”, the “lung hydroxyproline value compared with vehicle group” value ([1]; 5% significance level) was “significantly lower” and the Ashcroft score [1, 3] was 2.2±0.3. The Lung hydroxyproline value [1, 3] was 58.7±10.1 µg/left lung, the “t-PA activity in blood vs placebo” value (t-PA; 60 mg/day oral, days 1 and 7) was “neither PAI-1 activity nor t-PA activity was different” and the “time after administration of maximal increase in t-PA activity” value (t-PA; 120 mg/day oral) was 8 h. The “t-PA activity in blood” value (t-PA; 120 mg/day oral, days 1 and 7) was “increased”, the “effect on the central nervous system” value (male Crl:CD(SD) rats) was “no effect” and the “effect on pregnancy, embryos and fetuses” value (pregnant rats) was “no effect on maintenance of pregnancy, no embryolethal effect, no fetal growth suppressive effect, and no teratogenic effect”. The “no-observed-adverse-effect level for embryos and fetuses” value (pregnant rats) was 1000 mg/kg/day, the “no-observed-adverse-effect level for the mothers” value (pregnant rats) was 1000 mg/kg/day and the “micronucleus-inducing effect on immature rat bone marrow erythrocytes” value [2] was “no micronucleus-inducing effect”. For the same compound, the “proliferation suppressive effect on bone marrow cells” value [2] was “no proliferation suppressive effect” and the “suppressive effect on hERG current (tail peak current suppression rate)” value (hERG current) was “no suppressive effect”.
